In publication PMC10400579, “FDW028, a novel FUT8 inhibitor, impels lysosomal proteolysis of B7-H3 via chaperone-mediated autophagy pathway and exhibits potent efficacy against metastatic colorectal cancer” (Cell Death & Disease, 2023):

Columns and labels:
[1] = target: T1, Fucosyltransferase 8 (FUT8) (Homo sapiens, UniProt Q9BYC5); experiment: grating-coupled interferometry (GCI) with immobilized FUT8; supported by thermal shift of FUT8-Flag from SW480 cells (Tm +[…] °C at […]); assay type: binding
T1 sequence (Q9BYC5 31-575): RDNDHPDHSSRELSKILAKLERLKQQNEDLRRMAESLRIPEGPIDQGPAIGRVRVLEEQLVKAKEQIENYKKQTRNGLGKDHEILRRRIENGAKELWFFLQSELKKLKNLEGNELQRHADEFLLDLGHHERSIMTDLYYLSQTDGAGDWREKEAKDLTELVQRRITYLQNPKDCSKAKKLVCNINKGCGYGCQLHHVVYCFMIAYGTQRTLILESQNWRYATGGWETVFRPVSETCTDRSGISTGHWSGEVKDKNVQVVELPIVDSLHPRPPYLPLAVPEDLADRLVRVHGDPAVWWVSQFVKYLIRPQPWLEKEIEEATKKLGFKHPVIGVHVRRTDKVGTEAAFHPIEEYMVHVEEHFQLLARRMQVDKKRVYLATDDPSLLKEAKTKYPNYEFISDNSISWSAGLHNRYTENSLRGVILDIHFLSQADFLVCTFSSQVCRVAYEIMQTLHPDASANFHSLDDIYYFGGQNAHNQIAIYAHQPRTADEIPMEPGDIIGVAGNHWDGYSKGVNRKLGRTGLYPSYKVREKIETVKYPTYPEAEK

[2] = target: T2, Fucosyltransferase 8 (FUT8) (Homo sapiens, UniProt Q9BYC5); experiment: streptavidin pulldown from SW480 lysate with […] probe, western blot and LC-MS/MS; assay type: cell-based
T2 construct: FUT8-Flag
T2 sequence (Q9BYC5 1-575): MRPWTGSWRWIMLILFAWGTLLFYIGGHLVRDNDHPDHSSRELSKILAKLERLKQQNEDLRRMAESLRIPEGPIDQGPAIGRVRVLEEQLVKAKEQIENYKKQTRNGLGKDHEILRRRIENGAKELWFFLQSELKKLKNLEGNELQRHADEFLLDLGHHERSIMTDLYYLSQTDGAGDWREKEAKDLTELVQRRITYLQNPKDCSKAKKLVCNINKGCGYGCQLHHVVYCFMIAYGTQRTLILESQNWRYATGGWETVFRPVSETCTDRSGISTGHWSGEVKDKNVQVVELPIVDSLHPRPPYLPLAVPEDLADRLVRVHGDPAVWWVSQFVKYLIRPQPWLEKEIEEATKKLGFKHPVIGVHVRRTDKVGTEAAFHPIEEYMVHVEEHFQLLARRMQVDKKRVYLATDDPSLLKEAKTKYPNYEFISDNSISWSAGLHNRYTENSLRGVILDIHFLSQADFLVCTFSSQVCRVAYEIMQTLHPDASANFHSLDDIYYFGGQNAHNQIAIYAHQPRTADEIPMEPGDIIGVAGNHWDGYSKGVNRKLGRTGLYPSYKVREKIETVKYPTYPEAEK

Row | Structure (SMILES) | Kd [1] | streptavidin pulldown from SW480 lysate with 0.2 mM probe, western blot and LC-M [2]
1 | CCc1ccc(CNc2nc3nc(CNCc4ccccc4)cc(O)n3n2)cc1 [D2-1c, FDW028] | 5.49 µM | –
2 | CCc1ccc(CNc2nc3nc(CN(Cc4ccccc4)C(=O)CCOCCOCCOCCOCCOCCOCCNC(=O)CCCC[C@@H]4SC[C@@H]5NC(=O)N[C@@H]54)cc(O)n3n2)cc1 [FDW028-PEG6-biotin] | – | much more FUT8-Flag was pulled down by FDW028-PEG6-biotin than the control
